Assay results as given in patent publication US20080039442A1, “Compounds With Kv4 Ion Channel Activity” (Devgen NV, priority 2004, published 2008).
Where two headings read alike, the source gives them in different places. Values belong to the compound of their own block, whether it stands above or below them.

Key:
[1] = biological target: T1, human Kv4.3/KChIP2.2 potassium channel (Homo sapiens, UniProt Q9UK17); assay: Whole cell patch clamp, CHO-K1 cells stably expressing Kv4.3/KChIP2.2; format: cell-based; conditions: for remaining activity at 1 µM: CHO-K1
T1 construct: expressed in transfected cells
T1 sequence (Q9UK17 1-655): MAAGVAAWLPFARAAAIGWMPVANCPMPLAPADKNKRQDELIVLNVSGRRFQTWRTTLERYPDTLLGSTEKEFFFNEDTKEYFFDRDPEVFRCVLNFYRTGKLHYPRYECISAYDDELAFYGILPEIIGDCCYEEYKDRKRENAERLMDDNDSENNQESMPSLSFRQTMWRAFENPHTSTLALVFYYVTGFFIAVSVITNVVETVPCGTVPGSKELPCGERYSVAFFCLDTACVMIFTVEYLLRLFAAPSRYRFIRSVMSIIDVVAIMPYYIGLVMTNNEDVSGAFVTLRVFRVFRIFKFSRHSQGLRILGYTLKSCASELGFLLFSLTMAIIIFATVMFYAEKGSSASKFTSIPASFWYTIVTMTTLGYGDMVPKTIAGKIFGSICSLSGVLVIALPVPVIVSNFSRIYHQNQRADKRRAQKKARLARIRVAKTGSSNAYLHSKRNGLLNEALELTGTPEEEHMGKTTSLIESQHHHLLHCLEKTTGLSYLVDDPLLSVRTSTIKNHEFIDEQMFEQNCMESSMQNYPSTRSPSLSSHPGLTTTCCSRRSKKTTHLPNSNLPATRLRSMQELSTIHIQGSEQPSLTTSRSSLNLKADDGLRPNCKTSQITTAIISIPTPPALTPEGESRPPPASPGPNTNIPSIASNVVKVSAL
T1 sequence (Q9NS61 1-270 partner): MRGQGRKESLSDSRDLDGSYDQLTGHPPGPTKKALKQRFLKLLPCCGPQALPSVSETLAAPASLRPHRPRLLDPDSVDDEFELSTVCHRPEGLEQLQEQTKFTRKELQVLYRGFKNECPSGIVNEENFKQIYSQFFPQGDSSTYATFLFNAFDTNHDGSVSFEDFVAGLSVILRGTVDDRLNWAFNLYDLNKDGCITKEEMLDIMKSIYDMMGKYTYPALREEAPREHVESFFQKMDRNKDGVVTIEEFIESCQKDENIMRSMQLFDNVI
Summary of the method: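 Whole-cell patch clamp at 20-25 °C, bath pH 7.4 with 4 mM KCl, pipette 130 mM KCl/10 mM EGTA/5 mM Na2ATP. Compound at […] (≤0.1% DMSO), n=2; pulses from −100 mV to +40 mV for 300 ms at 0.1 Hz, P/n (n=5) leak-corrected, cells with 1–50 nA currents only.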

[2] = read-out: Kv4.3 charge in %: remaining current measured after application of the compound and relative to the blank
[3] = read-out: Kv4.3 peak in %: remaining peak height measured after application of the compound and relative to the blank
[4] = Table 6, estimated from 2 μM, hill=1, ymax=100, read-out: IC50 (μM) Kv4.3
[5] = Table 12, read-out: Kv4.3 charge IC50

melting point: 134 to 136.5 °C | remaining activity at 1 µM [1, 2]: 30% | remaining activity at 1 µM [1, 3]: 87%
Compound: Cc1c(C(=O)NCc2ccc(F)c(C(F)(F)F)c2)sc2ccc(Cl)cc12 [Compound 107, 5-chloro-3-methyl-benzo[b]thiophene-2-carboxylic acid 4-fluoro-3-trifluoromethyl-benzylamide]

melting point: 101.3 to 106.3 °C | remaining activity at 1 µM [1, 2]: 37% | remaining activity at 1 µM [1, 3]: 77%
Compound: O=C(NCc1ccc(OC(F)(F)F)cc1)c1cc2cc(Cl)ccc2o1 [Compound 89, 5-chloro-benzofuran-2-carboxylic acid 4-trifluoromethoxy-benzylamide]

Continued, compound first:

Compound: 5-chloro-benzofuran-2- carboxylic acid 2,4- dimethoxy- benzylamide [Compound 2]
IC50 [1, 4]: 1.75 µM | IC50 ([1]; Table 9, read-out: IC50 (μM) Kv4.3): 1.75 µM | IC50 [1, 5]: 1.75 µM

Compound: C[C@@H](NC(=O)c1cc2cc(Cl)ccc2o1)c1ccc([N+](=O)[O-])cc1 [Compound 1, 5-chloro-benzofuran-2-carboxylic acid [(R)-1-(4-nitro-phenyl)-ethyl]-amide]
IC50 [1, 5]: 2.08 µM

Compound: 5-chloro-benzofuran-2- carboxylic acid [3- (10,11-dihydro- dibenzo[a,d]cyclohepten- 5-ylidene)-propyl]- methyl-amide [Compound 5]
IC50 [1, 4]: 16 µM | IC50 [1, 5]: 16 µM
